Data taken from US20240139260A1, “MICROBIAL STRAIN COMPOSITIONS” (MICROBIAL DISCOVERY GROUP, LLC, priority 2022, published 2024).
≈ marks a conversion by molar mass, not a printed value. Where two headings read alike, the source gives them in different places.

What was measured:
[1] = test system: Bacillus strain (NRRL No. B-68054); test: Antibiotic resistance, Minimum Inhibitory Concentrations (MICs) Against Medical Antibiotics; format: cell-based, Bacillus subtilis
From the text: (§1) The inventors have assessed resistance phenotypically. A bacterial strain is defined by EFSA as susceptible when its growth is inhibited at concentration of a specific antibiotic that is equal to or lower than the established cut-off value for that particular species. A bacterial strain is defined as resistant when it is able to grow at a concentration of a specific antibiotic that is higher than the established cut-off. The inventors utilized both the EFSA and CLSI guidelines for determining susceptibility and resistance interpreted through their defined cut-off values.

[2] = test system: Bacillus strain (NRRL No. B-68053); test: as above; format: cell-based, Bacillus subtilis
From the text: as §1, with “cut-off. We” for “cut-off. The inventors”

[3] = test system: Bacillus strain BC1 (NRRL No. B-67744); test: Antibiotic resistance, phenotypic MICs of medical antibiotics; format: cell-based, Bacillus coagulans; conditions: for MIC: Bacillus
[4] = Bacillus, NRRLB68054; read-out: NRRL No. B-68054 ug/mL (triplicate), Minimum Inhibitory Concentration
[5] = Bacillus, NRRLB68053; read-out: NRRL No. B-68053 ug/mL (triplicate), Minimum Inhibitory Concentration
[6] = NRRLB67744, MIC of the antibiotic against the strain, triplicate, read-out: NRRL No. B-67744 ug/ml (triplicate)
[7] = Bacillus, NRRLB68054, read-out: NRRL No. B-68054 ug/mL (triplicate), Minimum Inhibitory Concentration
[8] = Bacillus, NRRLB68053, read-out: NRRL No. B-68053 ug/mL (triplicate), Minimum Inhibitory Concentration

With `O=C(N[C@H](CO)[C@H](O)c1ccc([N+](=O)[O-])cc1)C(Cl)Cl` [Chloramphenicol] the MIC [1, 4] was 1.5 µg/mL (≈ 4.64 µM), the MIC [2, 5] was 3 µg/mL (≈ 9.28 µM) and the MIC [3, 6] was 0.016 µg/mL.

`O=C(O)c1cn(C2CC2)c2cc(N3CCNCC3)c(F)cc2c1=O` [Ciprofloxacin] showed an MIC [2, 5] of 0.94 µg/mL (≈ 2.84 µM).

`CCC[C@@H]1C[C@@H](C(=O)N[C@@H]([C@H]2O[C@H](SC)[C@H](O)[C@@H](O)[C@H]2O)[C@H](C)Cl)N(C)C1` [Clindamycin] was tested, and the MIC [1, 4] was 0.5 µg/mL (≈ 1.18 µM), the MIC [2, 5] was 1 µg/mL (≈ 2.35 µM) and the MIC [3, 6] was 0.016 µg/mL.

For `CC[C@H]1OC(=O)[C@H](C)[C@@H](O[C@H]2C[C@@](C)(OC)[C@@H](O)[C@H](C)O2)[C@H](C)[C@@H](O[C@@H]2O[C@H](C)C[C@H](N(C)C)[C@H]2O)[C@](C)(O)C[C@@H](C)C(=O)[C@H](C)[C@@H](O)[C@]1(C)O` [Erythromycin], the MIC [1, 4] was 0.047 µg/mL (≈ 0.064 µM), the MIC [2, 5] was 0.064 µg/mL (≈ 0.0872 µM) and the MIC [3, 6] was 0.125 µg/mL.

`NC[C@H]1O[C@H](O[C@H]2[C@H](O)[C@@H](O[C@H]3O[C@H](CO)[C@@H](O)[C@H](N)[C@H]3O)[C@H](N)C[C@@H]2N)[C@H](O)[C@@H](O)[C@@H]1O` [Kanamycin] showed an MIC [1, 4] of 0.75 µg/mL (≈ 1.55 µM), an MIC [2, 5] of 0.75 µg/mL (≈ 1.55 µM) and an MIC [3, 6] of 0.016 µg/mL.

`CC(=O)NC[C@H]1CN(c2ccc(N3CCOCC3)c(F)c2)C(=O)O1` [Linezolid] was tested, and the MIC [1, 4] was 0.25 µg/mL (≈ 0.741 µM), the MIC [2, 5] was 1 µg/mL (≈ 2.96 µM) and the MIC [3, 6] was 0.75 µg/mL.

`CO[C@H]1/C=C/O[C@@]2(C)Oc3c(C)c(O)c4c(O)c(c(/C=N/N5CCN(C)CC5)c(O)c4c3C2=O)NC(=O)/C(C)=C\C=C\[C@H](C)[C@H](O)[C@@H](C)[C@@H](O)[C@@H](C)[C@H](OC(C)=O)[C@@H]1C` [Rifampin] gave an MIC [1, 4] of 0.5 µg/mL (≈ 0.608 µM), an MIC [2, 5] of 0.25 µg/mL (≈ 0.304 µM) and an MIC [3, 6] of 0.25 µg/mL.

Work on `[H]/N=C(/N)N[C@H]1[C@H](O)[C@@H](O)[C@H](O[C@@H]2O[C@@H](C)[C@](O)(C=O)[C@H]2O[C@@H]2O[C@@H](CO)[C@H](O)[C@@H](O)[C@@H]2NC)[C@@H](N/C(N)=N\[H])[C@@H]1O` [Streptomycin] yielded an MIC [1, 4] of 4 µg/mL (≈ 6.88 µM), an MIC [2, 5] of 8 µg/mL (≈ 13.8 µM) and an MIC [3, 6] of 1.5 µg/mL.

`CN(C)[C@@H]1C(O)=C(C(N)=O)C(=O)[C@@]2(O)C(O)=C3C(=O)c4c(O)cccc4[C@@](C)(O)[C@H]3C[C@@H]12` [Tetracycline] was tested, and the MIC [1, 4] was 6 µg/mL (≈ 13.5 µM), the MIC [2, 5] was 12 µg/mL (≈ 27 µM) and the MIC [3, 6] was 1.25 µg/mL.

`CN(C)c1cc(NC(=O)CNC(C)(C)C)c(O)c2c1C[C@H]1C[C@H]3[C@H](N(C)C)C(O)=C(C(N)=O)C(=O)[C@@]3(O)C(O)=C1C2=O` [Tigecycline] gave an MIC [1, 7] of 0.064 µg/mL (≈ 0.109 µM), an MIC [2, 8] of 0.094 µg/mL (≈ 0.161 µM) and an MIC ([3]; NRRLB67744, read-out: NRRL No. B-67744 ug/ml (triplicate)) of 0.064 µg/mL (≈ 0.109 µM).

Work on `CN[C@H](CC(C)C)C(=O)N[C@H]1C(=O)N[C@@H](CC(N)=O)C(=O)N[C@H]2C(=O)N[C@H]3C(=O)N[C@H](C(=O)N[C@H](C(=O)O)c4cc(O)cc(O)c4-c4cc3ccc4O)[C@H](O)c3ccc(c(Cl)c3)Oc3cc2cc(c3O[C@@H]2O[C@H](CO)[C@@H](O)[C@H](O)[C@H]2O[C@H]2C[C@](C)(N)[C@H](O)[C@H](C)O2)Oc2ccc(cc2Cl)[C@H]1O` [Vancomycin] yielded an MIC [1, 7] of 0.75 µg/mL (≈ 0.518 µM), an MIC [2, 8] of 0.5 µg/mL (≈ 0.345 µM) and an MIC [3, 6] of 0.38 µg/mL.

In the case of Gentamicin, the “NRRL No. B-68054 ug/mL (triplicate), Minimum Inhibitory Concentration” value ([1]; triplicate) is reported as 0.125 µg/mL, the “NRRL No. B-68053 ug/mL (triplicate), Minimum Inhibitory Concentration” value ([2]; triplicate) is reported as 0.094 µg/mL and the “NRRL No. B-67744 ug/ml (triplicate)” value ([3]; MIC of the antibiotic against the strain, triplicate) is reported as 0.023 µg/mL.
